Columns and labels:
NSD2 [1-1365] = NSD2 [1-1365] (Homo sapiens (Human), UniProt O96028); assay: LC-MS/MS-based NSD2 enzymatic assay (SAH production); assay type: biochemical; conditions: NSD2 biochemical activity, class symbols; read-out: NSD2 IC50
Outline: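 Full-length NSD2 [1-1365] (8 nM final) with 1 μM SAM and 400 nM mouse-liver nucleosome in Tris pH 8.0 buffer; inhibitor preincubated 20 min with enzyme/SAM before nucleosome addition. Reaction 90 min at room temperature, TFA-quenched; SAH quantified by LC-MS/MS against d4-SAH internal standard and SAH standard curve.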

[1] = test system: cellular H3K36me2 level in thyroid carcinoma cell line CGTH-W-1 (NSD2 E1099K); assay: H3K36me2 cellular ELISA assay in CGTH-W-1 line; assay type: cell-based; conditions: Homo sapiens, CGTH-W-1, 72 h, read-out: H3K36me2 ELISA in CGTH-W-1
Outline: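 CGTH-W-1 thyroid carcinoma cells (NSD2 E1099K gain-of-function) exposed to compound for 72 hours. Histone-bound plates probed for H3K36me2 and total H3 by chemiluminescent ELISA. Viability checked on a parallel plate with CellTiter-Glo.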

[2] = test system: cellular H3K36me2 level in multiple myeloma cell line KMS11 (t(4;14)+); assay: H3K36me2 cellular ELISA assay in KMS11-Par line; assay type: cell-based; conditions: Homo sapiens, KMS-11; KMS11-Par line (t(4;14)+), 72 hours treatment, ELISA; read-out: H3K36me2 ELISA in KMS11-Par
Outline: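 KMS11 cells were seeded a day ahead at 1,250 per well in Opti-MEM with B-27/N2, then treated with compound for 72 h. Histones were acid-extracted with 0.4M HCl, and H3K36me2 and total H3 were read by chemiluminescent ELISA. Viability was checked with CellTiter-Glo on a parallel plate in maintenance media.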

NSD2 [1-1365], sequence (O96028 whole entry): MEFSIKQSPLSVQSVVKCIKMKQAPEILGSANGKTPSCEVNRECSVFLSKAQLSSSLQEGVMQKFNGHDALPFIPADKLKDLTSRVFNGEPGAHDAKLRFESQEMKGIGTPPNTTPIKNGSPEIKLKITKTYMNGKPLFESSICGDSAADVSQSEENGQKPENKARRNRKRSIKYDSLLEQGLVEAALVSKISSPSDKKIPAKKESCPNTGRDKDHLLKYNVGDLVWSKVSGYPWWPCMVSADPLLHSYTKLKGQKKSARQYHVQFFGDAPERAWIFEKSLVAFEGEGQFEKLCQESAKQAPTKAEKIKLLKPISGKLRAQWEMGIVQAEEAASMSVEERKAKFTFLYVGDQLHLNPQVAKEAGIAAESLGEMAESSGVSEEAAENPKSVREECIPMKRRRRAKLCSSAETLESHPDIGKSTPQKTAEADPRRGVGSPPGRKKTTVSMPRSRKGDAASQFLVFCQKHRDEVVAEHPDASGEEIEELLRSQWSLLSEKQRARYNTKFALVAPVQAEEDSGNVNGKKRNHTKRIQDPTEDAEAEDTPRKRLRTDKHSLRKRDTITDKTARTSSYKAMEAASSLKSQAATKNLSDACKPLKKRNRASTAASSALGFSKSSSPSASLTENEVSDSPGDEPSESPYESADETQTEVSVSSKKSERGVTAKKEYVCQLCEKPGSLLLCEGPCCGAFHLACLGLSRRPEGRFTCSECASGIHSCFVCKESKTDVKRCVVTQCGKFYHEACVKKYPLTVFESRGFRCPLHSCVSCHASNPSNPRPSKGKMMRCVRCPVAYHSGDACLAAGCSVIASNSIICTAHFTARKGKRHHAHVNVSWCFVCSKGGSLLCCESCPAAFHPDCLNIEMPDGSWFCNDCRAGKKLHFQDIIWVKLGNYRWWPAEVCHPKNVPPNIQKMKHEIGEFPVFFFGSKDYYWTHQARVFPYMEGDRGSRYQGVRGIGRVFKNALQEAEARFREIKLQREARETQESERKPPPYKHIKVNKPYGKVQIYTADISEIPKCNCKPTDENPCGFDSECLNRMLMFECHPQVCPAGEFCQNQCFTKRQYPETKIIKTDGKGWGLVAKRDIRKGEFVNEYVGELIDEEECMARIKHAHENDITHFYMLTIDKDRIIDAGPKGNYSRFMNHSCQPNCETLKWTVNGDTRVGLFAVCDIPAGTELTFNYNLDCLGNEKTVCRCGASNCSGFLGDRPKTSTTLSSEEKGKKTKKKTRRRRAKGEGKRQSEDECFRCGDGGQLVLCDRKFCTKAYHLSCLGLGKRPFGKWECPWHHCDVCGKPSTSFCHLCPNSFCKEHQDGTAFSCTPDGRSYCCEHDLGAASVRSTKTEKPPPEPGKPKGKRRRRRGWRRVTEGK

Row | SMILES | IC50 (NSD2 [1-1365]) [nM] | IC50 [1] [nM] | IC50 [2] [nM]
1 | COc1ccc(-c2cc(Cn3cnc4c(N)ncnc43)c(N3CCC[C@](N)([C@H](O)C(F)F)C3)cn2)cc1Cl [Example 125, (S)-1-((R)-3-amino-1-(4-((6-amino-9H-purin-9-yl)methyl)-6-(3-chloro-4-methoxyphenyl)pyridin-3-yl)piperidin-3-yl)-2,2-difluoroethan-1-ol] | 1 to 10 | 775 | 3950
2 | Cc1ccc(-c2cc(Cn3cnc4c(N)ncnc43)c(N3CCC[C@](N)([C@@H](O)C(F)F)C3)cn2)c(C)c1 [Example 126, (R)-1-((R)-3-amino-1-(4-((6-amino-9H-purin-9-yl)methyl)-6-(2,4-dimethylphenyl)pyridin-3-yl)piperidin-3-yl)-2,2-difluoroethan-1-ol] | 1 to 10 | 469 | 1110
3 | COc1ccc(-c2cc(Cn3cnc4c(N)ncnc43)c(N3CCC[C@](N)([C@H](O)C(F)F)C3)cn2)cc1F [Example 127, (S)-1-((R)-3-amino-1-(4-((6-amino-9H-purin-9-yl)methyl)-6-(3-fluoro-4-methoxyphenyl)pyridin-3-yl)piperidin-3-yl)-2,2-difluoroethan-1-ol] | 1 to 10 | 262 | 901
4 | Nc1ncnc2c1ncn2Cc1cc(-c2cc(F)c(OC(F)F)cc2F)ncc1N1CCC[C@](N)([C@H](O)C(F)F)C1 [Example 128, (S)-1-((R)-3-amino-1-(4-((6-amino-9H-purin-9-yl)methyl)-6-(4-(difluoromethoxy)-2,5-difluorophenyl)pyridin-3-yl)piperidin-3-yl)-2,2-difluoroethan-1-ol] | 1 to 10 | 60 | 693
5 | Nc1ncnc2c1ncn2Cc1cc(C2CCCCC2)ncc1N1CCC[C@](N)([C@@H](O)C(F)F)C1 [Example 130, (R)-1-((R)-3-amino-1-(4-((6-amino-9H-purin-9-yl)methyl)-6-cyclohexylpyridin-3-yl)piperidin-3-yl)-2,2-difluoroethan-1-ol] | 1 to 10 | 321 | 3520
6 | COc1ccc(-c2cc(Cn3cnc4c(N)ncnc43)c(N3CCC[C@](N)([C@@H](O)C(F)F)C3)cn2)cc1F [Example 131, (R)-1-((R)-3-amino-1-(4-((6-amino-9H-purin-9-yl)methyl)-6-(3-fluoro-4-methoxyphenyl)pyridin-3-yl)piperidin-3-yl)-2,2-difluoroethan-1-ol] | 1 to 10 | 142 | 887
7 | Nc1ncnc2c1ncn2Cc1cc(-c2ccc(C(F)F)cc2F)ncc1N1CCC[C@](N)([C@@H](O)C(F)F)C1 [Example 132, (R)-1-((R)-3-amino-1-(4-((6-amino-9H-purin-9-yl)methyl)-6-(4-(difluoromethyl)-2-fluorophenyl)pyridin-3-yl)piperidin-3-yl)-2,2-difluoroethan-1-ol] | 1 to 10 | 264 | 1230
8 | Nc1ncnc2c1ncn2Cc1cc(-c2ccc(Cl)cc2F)ncc1N1CCC[C@](N)([C@@H](O)C(F)F)C1 [Example 133, (R)-1-((R)-3-amino-1-(4-((6-amino-9H-purin-9-yl)methyl)-6-(4-chloro-2-fluorophenyl)pyridin-3-yl)piperidin-3-yl)-2,2-difluoroethan-1-ol] | 10 to 1000 | 177 | 1610
9 | Nc1ncnc2c1ncn2Cc1cc(-c2cc(F)c(C(F)F)cc2F)ncc1N1CCC[C@](N)([C@@H](O)C(F)F)C1 [Example 134, (R)-1-((R)-3-amino-1-(4-((6-amino-9H-purin-9-yl)methyl)-6-(4-(difluoromethyl)-2,5-difluorophenyl)pyridin-3-yl)piperidin-3-yl)-2,2-difluoroethan-1-ol] | 10 to 1000 | 601 | 830
10 | Nc1ncnc2c1ncn2Cc1cc(-c2ccc(OC(F)F)cc2F)ncc1N1CCC[C@](N)([C@@H](O)C(F)F)C1 [Example 138, (R)-1-((R)-3-amino-1-(4-((6-amino-9H-purin-9-yl)methyl)-6-(4-(difluoromethoxy)-2-fluorophenyl)pyridin-3-yl)piperidin-3-yl)-2,2-difluoroethan-1-ol] | 10 to 1000 | 132 | 1570
11 | Nc1ncnc2c1ncn2Cc1cc(-c2ccc(F)c(Cl)c2)ncc1N1CCC[C@](N)([C@H](O)C(F)F)C1 [Example 139, (S)-1-((R)-3-amino-1-(4-((6-amino-9H-purin-9-yl)methyl)-6-(3-chloro-4-fluorophenyl)pyridin-3-yl)piperidin-3-yl)-2,2-difluoroethan-1-ol] | 10 to 1000 | 669 | 2840
12 | Nc1ncnc2c1ncn2Cc1cc(-c2ccc(C(F)(F)F)cc2F)ncc1N1CCC[C@](N)([C@@H](O)C(F)F)C1 [Example 141, (R)-1-((R)-3-amino-1-(4-((6-amino-9H-purin-9-yl)methyl)-6-(2-fluoro-4-(trifluoromethyl)phenyl)pyridin-3-yl)piperidin-3-yl)-2,2-difluoroethan-1-ol] | 10 to 1000 | 1150 | 7700
13 | Nc1ncnc2c1ncn2Cc1cc(-c2cc(F)c(O)cc2F)ncc1N1CCC[C@](N)([C@H](O)C(F)F)C1 [Example 144, 4-(5-((R)-3-amino-3-((S)-2,2-difluoro-1-hydroxyethyl)piperidin-1-yl)-4-((6-amino-9H-purin-9-yl)methyl)pyridin-2-yl)-2,5-difluorophenol] | 10 to 1000 | 2580 | 10400
14 | Nc1ncnc2c1ncn2Cc1cc(C2CCCCC2)ncc1N1CCC[C@](N)([C@H](O)C(F)F)C1 [Example 145, (S)-1-((R)-3-amino-1-(4-((6-amino-9H-purin-9-yl)methyl)-6-cyclohexylpyridin-3-yl)piperidin-3-yl)-2,2-difluoroethan-1-ol] | 10 to 1000 | 990 | 8110
15 | Nc1ncnc2c1ncn2Cc1cc(-c2ccc(F)cc2F)ncc1N1CCC[C@](N)([C@@H](O)C(F)F)C1 [Example 147, (R)-1-((R)-3-amino-1-(4-((6-amino-9H-purin-9-yl)methyl)-6-(2,4-difluorophenyl)pyridin-3-yl)piperidin-3-yl)-2,2-difluoroethan-1-ol] | 10 to 1000 | 44 | 2490
16 | Nc1ncnc2c1ncn2Cc1cc(-c2ccc(Cl)cc2F)ncc1N1CCC[C@](N)([C@H](O)C(F)F)C1 [Example 148, (S)-1-((R)-3-amino-1-(4-((6-amino-9H-purin-9-yl)methyl)-6-(4-chloro-2-fluorophenyl)pyridin-3-yl)piperidin-3-yl)-2,2-difluoroethan-1-ol] | 10 to 1000 | 671 | 2160
17 | Nc1ncnc2c1ncn2Cc1cc(-c2cc(F)c(OC(F)F)cc2F)ncc1N1CCC[C@](N)([C@@H](O)C(F)F)C1 [Example 150, (R)-1-((R)-3-amino-1-(4-((6-amino-9H-purin-9-yl)methyl)-6-(4-(difluoromethoxy)-2,5-difluorophenyl)pyridin-3-yl)piperidin-3-yl)-2,2-difluoroethan-1-ol] | 10 to 1000 | 307 | 1670
18 | Nc1ncnc2c1ncn2Cc1cc(-c2ccc(F)cc2F)ncc1N1CCC[C@](N)([C@H](O)C(F)F)C1 [Example 151, (S)-1-((R)-3-amino-1-(4-((6-amino-9H-purin-9-yl)methyl)-6-(2,4-difluorophenyl)pyridin-3-yl)piperidin-3-yl)-2,2-difluoroethan-1-ol] | 10 to 1000 | 842 | 4190
